Measurements taken from patent US8697720B2 (Crestone, Inc., priority 2006, dated 2014).

Experiments:
[1] = tested on: C. difficile strain ATCC43255; test: Toxin A production in high cell density stationary phase C. difficile cultures (ELIFA); type: cell-based; details: 4 day old stationary phase cultures, toxin A by ELIFA
Method: C. difficile strain ATCC43255 was grown and maintained anaerobically on CDC anaerobe agar (Remel, Lenexa, Kans.). To test the effect of antibacterial agents on growth, cells were grown anaerobically for 40 h at 35° C. in 96-well brain heart infusion (BHI) broth cultures, with an initial inoculum of 10^6 CFU/mL. To test the effect of antibacterial agents on toxin production at high C. difficile cell densities, the cells were grown anaerobically for 24 h at 35° C. in 96-well brain heart infusion (BHI) broth cultures. Spent medium was then replaced with fresh broth containing MetRS inhibitors and control agents at a concentration range of 0.015-16 μg/mL. After 4 days, growth and cell viability were monitored by optical density measurements at 595 nm and by culture on CDC anaerobe agar, respectively. Culture supernatants were collected, and toxin A was detected by ELIFA (enzyme-linked immuno-flow assay) using an anti toxin A monoclonal antibody (Novus Biologicals, Centennial, Colo.).

[2] = tested on: C. difficile; test: C. difficile-infected hamster survival study; type: in vivo
Method: Animal studies were performed to determine the efficacy of MetRS inhibitors for treating C. difficile-infections. The MetRS inhibitors tested were 5-[3-((R)-6,8-Dibromo-chroman-4-ylamino)-propylamino]-4H-thieno[3,2-b]pyridine-7-one (both racemic mixture and the R enantiomer), 5-[3-((R)-8-Bromo-6-chloro-chroman-4-ylamino)-propylamino]-4H-thieno[3,2-b]pyridin-7-one, and 2-(3-{3,5-Dibromo-2-[2-(4-methyl-thiazol-5-yl)-ethoxy]-benzylamino}-propylamino)-1H-quinolin-4-one.
Results were compared to C. difficile-infected hamsters treated with the conventional antibiotic, vancomycin. Infected hamsters were treated with either a solution or suspension of a MetRS inhibitor at 5 to 50 mg/kg or vancomycin at 2.5, 5 or 25 mg/kg. There were eight hamsters per group with the final endpoint of the experiment being survival. Expired hamsters were examined for GI condition.

Structure (SMILES)	concentrations that inhibited toxin production [1]	further results
Cc1ncsc1CCOc1c(Br)cc(Br)cc1CNCCCNc1cc(=O)c2sccc2[nH]1	0.25 µg/mL	
Cl.Cl.Cl.O=c1cc(NCCCNC2CCNc3c(Br)cc(Br)cc32)[nH]c2ccsc12 (stereo not drawn) [5-[3-(6,8-Dibromo-1,2,3,4-tetrahydro-quinolin-4-ylamino)-propylamino]-4H-thieno[3,2-b]pyridin-7-one tri-hydrochloride]	0.25 µg/mL	
O=c1cc(NCCCNC2CCOc3c(Br)cc(Br)cc32)[nH]c2ccsc12 (stereo not drawn) [5-[3-(6,8-Dibromo-chroman-4-ylamino)-propylamino]-4H-thieno[3,2-b]pyridin-7-one]	0.25 µg/mL	
O=c1cc(NCCCN[C@@H]2CCOc3c(Br)cc(Br)cc32)[nH]c2ccsc12 [5-[3-((R)-6,8-Dibromo-chroman-4-ylamino)-propylamino]-4H-thieno[3,2-b]pyridine-7-one]		survival of infected hamsters ([2]; MetRS inhibitor at 5 to 50 mg/kg, untreated controls died within 3-4 days): best efficacy
Cl.Cl.O=c1cc(NCCCN[C@@H]2CCOc3c(Br)cc(Br)cc32)[nH]c2ccsc12 [R-(+)-5-[3-(6,8-Dibromo-chroman-4-ylamino)-propylamino]-4H-thieno[3,2-b]pyridin-7-one di-hydrochloride]	0.25 µg/mL	
CN[C@H](CC(C)C)C(=O)N[C@H]1C(=O)N[C@@H](CC(N)=O)C(=O)N[C@H]2C(=O)N[C@H]3C(=O)N[C@H](C(=O)N[C@H](C(=O)O)c4cc(O)cc(O)c4-c4cc3ccc4O)[C@H](O)c3ccc(c(Cl)c3)Oc3cc2cc(c3O[C@@H]2O[C@H](CO)[C@@H](O)[C@H](O)[C@H]2O[C@H]2C[C@](C)(N)[C@H](O)[C@H](C)O2)Oc2ccc(cc2Cl)[C@H]1O [vancomycin, reference compound]		survival with vancomycin ([2]; Day 28, vancomycin at 2.5, 5 or 25 mg/kg): 0-10%
